Assay results as given in US8952157B2, “Apoptosis-inducing agents for the treatment of cancer and immune and autoimmune diseases” (AbbVie Inc., priority 2008, dated 2015).
Where two headings read alike, the source gives them in different places.

Target: GST-Bcl-2 (Homo sapiens (Human), UniProt P10415)
Test: Time Resolved-Fluorescence Resonance Energy Transfer (TR-FRET) Bcl-2 binding assay
Outline: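 Competition TR-FRET: GST-Bcl-2 with fluorescent Bak peptide probe and Tb-anti-GST antibody, compounds serially diluted from 50 μM (2× start, 10% DMSO).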

[1] = GST-Bcl-2 1 nM, F-Bak peptide probe 100 nM, Tb-anti-GST antibody 1 nM, Ki by Wang's equation

Sequence of GST-Bcl-2 (P10415 whole entry): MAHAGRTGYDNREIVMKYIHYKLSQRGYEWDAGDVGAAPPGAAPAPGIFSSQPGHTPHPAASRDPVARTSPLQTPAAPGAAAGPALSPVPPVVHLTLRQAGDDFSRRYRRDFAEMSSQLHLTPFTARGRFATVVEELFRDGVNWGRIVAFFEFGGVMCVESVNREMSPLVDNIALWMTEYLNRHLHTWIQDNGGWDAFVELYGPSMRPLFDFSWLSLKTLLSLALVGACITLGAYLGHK

Row | SMILES | Ki | Ki [1]
1 | O=C(NS(=O)(=O)c1ccc(N[C@H]2CC[C@H](N3CCOCC3)CC2)c(S(=O)(=O)C(F)(F)F)c1)c1ccc(N2CCN(CC3=C(c4ccc(Cl)cc4)CCOCC3)CC2)cc1Oc1cc2cc[nH]c2cc1Cl [Example 314, Trans-2-[(6-chloro-1H-indol-5-yl)oxy]-4-(4-{[5-(4-chlorophenyl)-2,3,6,7-tetrahydrooxepin-4-yl]methyl}piperazin-1-yl)-N-({4-[(4-morpholin-4-ylcyclohexyl)amino]-3-[(trifluoromethyl)sulfonyl]phenyl}sulfonyl)benzamide] | 3.09 nM | –
2 | O=C(NS(=O)(=O)c1ccc(N[C@H]2CC[C@H](N3CCOCC3)CC2)c([N+](=O)[O-])c1)c1ccc(N2CCN(CC3=C(c4ccc(Cl)cc4)CCOCC3)CC2)cc1Oc1cc2cc[nH]c2cc1Cl [Example 315, Trans-2-[(6-chloro-1H-indol-5-yl)oxy]-4-(4-{[5-(4-chlorophenyl)-2,3,6,7-tetrahydrooxepin-4-yl]methyl}piperazin-1-yl)-N-({4-[(4-morpholin-4-ylcyclohexyl)amino]-3-nitrophenyl}sulfonyl)benzamide] | 4.55 nM | –
3 | CN1CCN(Nc2ccc(S(=O)(=O)NC(=O)c3ccc(N4CCN(CC5=C(c6ccc(Cl)cc6)CC(C)(C)OC5)CC4)cc3Oc3cc4cc[nH]c4cc3F)cc2[N+](=O)[O-])CC1 [Example 316, 4-(4-{[4-(4-chlorophenyl)-6,6-dimethyl-5,6-dihydro-2H-pyran-3-yl]methyl}piperazin-1-yl)-2-[(6-fluoro-1H-indol-5-yl)oxy]-N-({4-[(4-methylpiperazin-1-yl)amino]-3-nitrophenyl}sulfonyl)benzamide] | – | 0.058 nM
4 | CC1(C)CCC(CN2CCN(c3ccc(C(=O)NS(=O)(=O)c4ccc(OCC#CCN5CCOCC5)c([N+](=O)[O-])c4)c(Oc4cc5cc[nH]c5cc4F)c3)CC2)=C(c2ccc(Cl)cc2)C1 [Example 317, 4-(4-{[2-(4-chlorophenyl)-4,4-dimethylcyclohex-1-en-1-yl]methyl}piperazin-1-yl)-2-[(6-fluoro-1H-indol-5-yl)oxy]-N-({4-[(4-morpholin-4-ylbut-2-ynyl)oxy]-3-nitrophenyl}sulfonyl)benzamide] | – | 0.205 nM
5 | CC1(C)CCC(CN2CCN(c3ccc(C(=O)NS(=O)(=O)c4ccc(NCC5CCOCC5)c([N+](=O)[O-])c4)c(Oc4cnc(N)c(Cl)c4)c3)CC2)=C(c2ccc(Cl)cc2)C1 [Example 318, 2-[(6-amino-5-chloropyridin-3-yl)oxy]-4-(4-{[2-(4-chlorophenyl)-4,4-dimethylcyclohex-1-en-1-yl]methyl}piperazin-1-yl)-N-({3-nitro-4-[(tetrahydro-2H-pyran-4-ylmethyl)amino]phenyl}sulfonyl)benzamide] | – | < 0.01 nM
6 | CC1(C)CCC(CN2CCN(c3ccc(C(=O)NS(=O)(=O)c4ccc(N[C@H]5CC[C@H](N6CCOCC6)CC5)c([N+](=O)[O-])c4)c(Oc4cccc5c4CC(=O)N5)c3)CC2)=C(c2ccc(Cl)cc2)C1 [Example 320, Trans-4-(4-{[2-(4-chlorophenyl)-4,4-dimethylcyclohex-1-en-1-yl]methyl}piperazin-1-yl)-N-({4-[(4-morpholin-4-ylcyclohexyl)amino]-3-nitrophenyl}sulfonyl)-2-[(2-oxo-2,3-dihydro-1H-indol-4-yl)oxy]benzamide] | 0.028 nM | –
7 | COCCNc1ccc(S(=O)(=O)NC(=O)c2ccc(N3CCN(CC4=C(c5ccc(Cl)cc5)CC(C)(C)CC4)CC3)cc2Oc2cccc3c2CC(=O)N3)cc1[N+](=O)[O-] [Example 321, 4-(4-{[2-(4-chlorophenyl)-4,4-dimethylcyclohex-1-en-1-yl]methyl}piperazin-1-yl)-N-({4-[(2-methoxyethyl)amino]-3-nitrophenyl}sulfonyl)-2-[(2-oxo-2,3-dihydro-1H-indol-4-yl)oxy]benzamide] | – | 0.029 nM
8 | C#Cc1cc(S(=O)(=O)NC(=O)c2ccc(N3CCN(CC4=C(c5ccc(Cl)cc5)CC(C)(C)CC4)CC3)cc2Oc2cc3cc[nH]c3cc2F)cnc1OCC1CCOCC1 [Example 322, 4-(4-{[2-(4-chlorophenyl)-4,4-dimethylcyclohex-1-en-1-yl]methyl}piperazin-1-yl)-N-{[5-ethynyl-6-(tetrahydro-2H-pyran-4-ylmethoxy)pyridin-3-yl]sulfonyl}-2-[(6-fluoro-1H-indol-5-yl)oxy]benzamide] | – | 4.53 nM
9 | C#Cc1cc(S(=O)(=O)NC(=O)c2ccc(N3CCN(CC4=C(c5ccc(Cl)cc5)CC(C)(C)OC4)CC3)cc2Oc2cc3cc[nH]c3cc2F)cnc1OCC1CCOCC1 [Example 323, 4-(4-{[4-(4-chlorophenyl)-6,6-dimethyl-5,6-dihydro-2H-pyran-3-yl]methyl}piperazin-1-yl)-N-{[5-ethynyl-6-(tetrahydro-2H-pyran-4-ylmethoxy)pyridin-3-yl]sulfonyl}-2-[(6-fluoro-1H-indol-5-yl)oxy]benzamide] | – | 3.48 nM
10 | CC1(C)CCC(CN2CCN(c3ccc(C(=O)NS(=O)(=O)c4ccc(N[C@H]5CC[C@H](N6CCOCC6)CC5)c([N+](=O)[O-])c4)c(Oc4cnc(N)c(Cl)c4)c3)CC2)=C(c2ccc(Cl)cc2)C1 [Example 324, Trans-2-[(6-amino-5-chloropyridin-3-yl)oxy]-4-(4-{[2-(4-chlorophenyl)-4,4-dimethylcyclohex-1-en-1-yl]methyl}piperazin-1-yl)-N-({4-[(4-morpholin-4-ylcyclohexyl)amino]-3-nitrophenyl}sulfonyl)benzamide] | < 0.01 nM | –
11 | CC1(C)CCC(CN2CCN(c3ccc(C(=O)NS(=O)(=O)c4cnc(OC5CCN(C6CCOCC6)CC5)c(C#N)c4)c(Oc4cc5cc[nH]c5cc4F)c3)CC2)=C(c2ccc(Cl)cc2)C1 [Example 325, 4-(4-{[2-(4-chlorophenyl)-4,4-dimethylcyclohex-1-en-1-yl]methyl}piperazin-1-yl)-N-({5-cyano-6-[(1-tetrahydro-2H-pyran-4-ylpiperidin-4-yl)oxy]pyridin-3-yl}sulfonyl)-2-[(6-fluoro-1H-indol-5-yl)oxy]benzamide] | – | 0.183 nM
12 | CC1(C)CCC(CN2CCN(c3ccc(C(=O)NS(=O)(=O)c4cnc(OCC5(F)CCOCC5)c(Cl)c4)c(Oc4cc5cc[nH]c5cc4F)c3)CC2)=C(c2ccc(Cl)cc2)C1 [Example 326, N-({5-chloro-6-[(4-fluorotetrahydro-2H-pyran-4-yl)methoxy]pyridin-3-yl}sulfonyl)-4-(4-{[2-(4-chlorophenyl)-4,4-dimethylcyclohex-1-en-1-yl]methyl}piperazin-1-yl)-2-[(6-fluoro-1H-indol-5-yl)oxy]benzamide] | – | 0.037 nM
13 | CC1(C)CCC(CN2CCN(c3ccc(C(=O)NS(=O)(=O)c4ccc(NC5CCN(C6CC6)CC5)c([N+](=O)[O-])c4)c(Oc4cc5cc[nH]c5cc4F)c3)CC2)=C(c2ccc(Cl)cc2)C1 [Example 327, 4-(4-{[2-(4-chlorophenyl)-4,4-dimethylcyclohex-1-en-1-yl]methyl}piperazin-1-yl)-N-({4-[(1-cyclopropylpiperidin-4-yl)amino]-3-nitrophenyl}sulfonyl)-2-[(6-fluoro-1H-indol-5-yl)oxy]benzamide] | – | 0.212 nM
14 | CCN1CCOCC1COc1ccc(S(=O)(=O)NC(=O)c2ccc(N3CCN(CC4=C(c5ccc(Cl)cc5)CC(C)(C)CC4)CC3)cc2Oc2cc3cc[nH]c3cc2F)cc1[N+](=O)[O-] (stereo not shown) [Example 328, 4-(4-{[2-(4-chlorophenyl)-4,4-dimethylcyclohex-1-en-1-yl]methyl}piperazin-1-yl)-N-({4-[(4-ethylmorpholin-3-yl)methoxy]-3-nitrophenyl}sulfonyl)-2-[(6-fluoro-1H-indol-5-yl)oxy]benzamide] | – | 0.068 nM
15 | CC1(C)CCC(CN2CCN(c3ccc(C(=O)NS(=O)(=O)c4ccc(N[C@H]5CCCN(C6CCOCC6)C5)c([N+](=O)[O-])c4)c(Oc4cc5cc[nH]c5cc4F)c3)CC2)=C(c2ccc(Cl)cc2)C1 [Example 329, 4-(4-{[2-(4-chlorophenyl)-4,4-dimethylcyclohex-1-en-1-yl]methyl}piperazin-1-yl)-2-[(6-fluoro-1H-indol-5-yl)oxy]-N-[(3-nitro-4-{[(3S)-1-tetrahydro-2H-pyran-4-ylpiperidin-3-yl]amino}phenyl)sulfonyl]benzamide] | – | 0.108 nM
16 | CC1(C)CCC(CN2CCN(c3ccc(C(=O)NS(=O)(=O)c4ccc(OCC5(F)CCOCC5)c([N+](=O)[O-])c4)c(Oc4cnc(N)c(Cl)c4)c3)CC2)=C(c2ccc(Cl)cc2)C1 [Example 330, 2-[(6-amino-5-chloropyridin-3-yl)oxy]-4-(4-{[2-(4-chlorophenyl)-4,4-dimethylcyclohex-1-en-1-yl]methyl}piperazin-1-yl)-N-({4-[(4-fluorotetrahydro-2H-pyran-4-yl)methoxy]-3-nitrophenyl}sulfonyl)benzamide] | – | < 0.01 nM
17 | CC1(C)CCC(CN2CCN(c3ccc(C(=O)NS(=O)(=O)c4ccc(NN5CCS(=O)(=O)CC5)c([N+](=O)[O-])c4)c(Oc4cc5cc[nH]c5cc4F)c3)CC2)=C(c2ccc(Cl)cc2)C1 [Example 331, 4-(4-{[2-(4-chlorophenyl)-4,4-dimethylcyclohex-1-en-1-yl]methyl}piperazin-1-yl)-N-({4-[(1,1-dioxidothiomorpholin-4-yl)amino]-3-nitrophenyl}sulfonyl)-2-[(6-fluoro-1H-indol-5-yl)oxy]benzamide] | – | 0.238 nM
18 | CC1(C)CCC(CN2CCN(c3ccc(C(=O)NS(=O)(=O)c4ccc(NCC5CCOC5)c([N+](=O)[O-])c4)c(Oc4cc5cc[nH]c5cc4F)c3)CC2)=C(c2ccc(Cl)cc2)C1 (stereo not shown) [Example 332, 4-(4-{[2-(4-chlorophenyl)-4,4-dimethylcyclohex-1-en-1-yl]methyl}piperazin-1-yl)-2-[(6-fluoro-1H-indol-5-yl)oxy]-N-({3-nitro-4-[(tetrahydrofuran-3-ylmethyl)amino]phenyl}sulfonyl)benzamide] | – | 0.034 nM
19 | CC1(C)CCC(CN2CCN(c3ccc(C(=O)NS(=O)(=O)c4ccc(N[C@H]5CC[C@H](N(C6CC6)C6CC6)CC5)c([N+](=O)[O-])c4)c(Oc4cc5cc[nH]c5cc4F)c3)CC2)=C(c2ccc(Cl)cc2)C1 [Example 334, Trans-4-(4-{[2-(4-chlorophenyl)-4,4-dimethylcyclohex-1-en-1-yl]methyl}piperazin-1-yl)-N-[(4-{[4-(dicyclopropylamino)cyclohexyl]amino}-3-nitrophenyl)sulfonyl]-2-[(6-fluoro-1H-indol-5-yl)oxy]benzamide] | 0.197 nM | –
